Our source for the IC50 and EC50 values is patent US11325916B1, “Spiropyrrolidine derived antiviral agents” (priority 2021, dated 2022).

One assay concerns the target SARS-CoV-2 3CL-protease (Severe acute respiratory syndrome coronavirus 2 (2019-nCoV) (SARS-CoV-2), UniProt P0DTD1). The assay can be described thus: SARS-CoV-2 3C-Like (3CL) Protease Fluorescence Assay (FRET). It counts as biochemical.
The subject of assay [1] is 229E human corona virus (hCoV). Briefly: 229E Live Virus Assay (MRC-5 cells, CPE, ATPlite readout). It is filed as cell-based, hCoV-229E. The note with it: Human coronavirus 229E, MRC5, 144 h, read-out: 229E EC50.
The mark [2] stands for this setting: MRC-5 cells, hCoV-229E MOI 0.05, 6 days at 34° C., ATPlite, duplicate, ranges defined in μM.

Each structure is given as a SMILES string. Where two headings read alike, the source gives them in different places.

On to `CC(C)[C@@H](NC(=O)C(F)(F)F)C(=O)N(C)[C@@H](Cc1ccccc1)C(=O)N1C[C@]2(C[C@H]1C#N)C(=O)Nc1ccccc12` [Example 51], for which, on SARS-CoV-2 3CL-protease, the IC50 (commonly the point on the concentration scale where inhibition reaches its midpoint) is under 100 nM. In assay [1] (setting [2]), the EC50 (as a rule, the concentration that produces a half-maximal response) is 0.1 to 1 µM.

As to `CN(C(=O)[C@H](Cc1ccc(F)cc1)N1CCOC1=O)[C@@H](CC(C)(C)C)C(=O)N1C[C@]2(C[C@H]1C#N)C(=O)Nc1ccccc12` [Example 52], the 50% inhibitory concentration (IC50) against SARS-CoV-2 3CL-protease is under 100 nM. Moreover, in assay [1], the EC50 was under 0.1 µM.

For the molecule `CN(C(=O)[C@H](Cc1ccc(F)cc1)n1cc(-c2ccccc2)nn1)[C@@H](CC(C)(C)C)C(=O)N1C[C@]2(C[C@H]1C#N)C(=O)Nc1ccccc12` [Example 54], the IC50 against SARS-CoV-2 3CL-protease was under 100 nM. For the same molecule, the 50% effective concentration (EC50) in assay [1] is under 0.1 µM.

Regarding `CC(C)(C)C(N)C(=O)N1CCC[C@H]1C(=O)N1C[C@]2(C[C@H]1C#N)C(=O)Nc1ccccc12` (stereo partly shown) [Example 56], the IC50 against SARS-CoV-2 3CL-protease is over 1000 nM. Also, the EC50 in assay [1] (setting [2]) was over 1 µM.

On SARS-CoV-2 3CL-protease, `CC(C)(C)C(NS(=O)(=O)c1ccccc1)C(=O)N1CCC[C@H]1C(=O)N1C[C@]2(C[C@H]1C#N)C(=O)Nc1ccccc12` (stereo partly shown) [Example 57] returned an IC50 of over 1000 nM. Also, in assay [1], the EC50 was over 1 µM.

With `CC(C)(C)C(NC(=O)c1ccc(F)cc1)C(=O)N1CCC[C@H]1C(=O)N1C[C@]2(C[C@H]1C#N)C(=O)Nc1ccccc12` (stereo partly shown) [Example 58], the half-maximal inhibitory concentration (IC50) against SARS-CoV-2 3CL-protease was over 1000 nM. In assay [1], the EC50 is over 1 µM.

On SARS-CoV-2 3CL-protease, `CC(C)OC(=O)NC(C(=O)N1CCC[C@H]1C(=O)N1C[C@]2(C[C@H]1C#N)C(=O)Nc1ccccc12)C(C)(C)C` (stereo partly shown) [Example 59] showed an IC50 of over 1000 nM. Also, the EC50 in assay [1] is over 1 µM.

As for `CC(C)(C)C(NC(=O)NCc1ccccc1)C(=O)N1CCC[C@H]1C(=O)N1C[C@]2(C[C@H]1C#N)C(=O)Nc1ccccc12` (stereo partly shown) [Example 60], the IC50 on SARS-CoV-2 3CL-protease is over 1000 nM. Besides, the concentration giving a half-maximal response (EC50) in assay [1] is over 1 µM.

For the molecule `CC(C)(C)C(NCc1cc(F)c(F)cc1F)C(=O)N1CCC[C@H]1C(=O)N1C[C@]2(C[C@H]1C#N)C(=O)Nc1ccccc12` (stereo partly shown) [Example 61], the IC50 against SARS-CoV-2 3CL-protease was over 1000 nM. Also, in assay [1], the EC50 was over 1 µM.

Consider `CC(C)(C)C[C@H](NC(=O)[C@H](Cc1ccc(F)cc1)NC(=O)OCc1ccccc1)C(=O)N1C[C@]2(C[C@H]1C#N)C(=O)Nc1ccccc12` [Example 62], for which the IC50 against SARS-CoV-2 3CL-protease is under 100 nM. Also, in assay [1], the 50% effective concentration (EC50) is over 1 µM.

Consider `CC(C)(C)C[C@H](NC(=O)[C@H](Cc1ccc(F)cc1)NC(=O)C(F)(F)F)C(=O)N1C[C@]2(C[C@H]1C#N)C(=O)Nc1ccccc12` [Example 63], for which the IC50 at SARS-CoV-2 3CL-protease is under 100 nM. For the same molecule, in assay [1] (setting [2]), the concentration giving a half-maximal response (EC50) is under 0.1 µM.

On SARS-CoV-2 3CL-protease, `CN(C(=O)[C@H](Cc1ccc(F)cc1)NC(=O)C1CCC1)[C@@H](CC(C)(C)C)C(=O)N1C[C@]2(C[C@H]1C#N)C(=O)Nc1ccccc12` [Example 64] came in with an IC50 of under 100 nM. Besides, the concentration for a half-maximal effect (EC50) in assay [1] was under 0.1 µM.

`CN(C(=O)[C@H](Cc1ccc(F)cc1)NC(=O)C1COC1)[C@@H](CC(C)(C)C)C(=O)N1C[C@]2(C[C@H]1C#N)C(=O)Nc1ccccc12` [Example 65]: the IC50 against SARS-CoV-2 3CL-protease was under 100 nM. The EC50 in assay [1] was under 0.1 µM.

Molecule `CN(C(=O)[C@H](Cc1ccc(F)cc1)NS(=O)(=O)C1CC1)[C@@H](CC(C)(C)C)C(=O)N1C[C@]2(C[C@H]1C#N)C(=O)Nc1ccccc12` [Example 66] displayed an IC50 at SARS-CoV-2 3CL-protease of under 100 nM. Moreover, the EC50 in assay [1] was under 0.1 µM.

Take `CN(C(=O)[C@H](Cc1ccc(F)cc1)N1CCCC1=O)[C@@H](CC(C)(C)C)C(=O)N1C[C@]2(C[C@H]1C#N)C(=O)Nc1ccccc12` [Example 67]: the IC50 on SARS-CoV-2 3CL-protease was under 100 nM. For the same molecule, in assay [1], the EC50 is under 0.1 µM.

`CN(C(=O)[C@H](Cc1ccc(F)cc1)NC(=O)N1CCOCC1)[C@@H](CC(C)(C)C)C(=O)N1C[C@]2(C[C@H]1C#N)C(=O)Nc1ccccc12` [Example 68] had an IC50 against SARS-CoV-2 3CL-protease of under 100 nM. Further, the EC50 in assay [1] is under 0.1 µM.

As for `CN(C(=O)[C@H](Cc1ccc(F)cc1)N1CCCNC1=O)[C@@H](CC(C)(C)C)C(=O)N1C[C@]2(C[C@H]1C#N)C(=O)Nc1ccccc12` [Example 69], on SARS-CoV-2 3CL-protease, the IC50 was under 100 nM. The EC50 in assay [1] was in the range of 0.1 to 1 µM.
